For 13 compounds, IC50 results are on record in patent US20230391748A1, “BICYCLIC INHIBITORS OF IRAK” (priority 2022, published 2023).

One assay concerns TNF-α in human PBMCs. Put plainly: R848-induced TNF-α in human PBMCs Assay. It is filed as cell-based. Particulars: Homo sapiens, PBMC, 4 h, read-out: TNFα (PBMC, R848) (IC50, μM). Here is the method:
R848-induced TNF-α in human PBMCs Assay
100 μL/well PBMCs (200K/well) were seeded in 96-well flat-bottom tissue culture plates. […] 100 μL/well 2× compound was added to the PBMC in the tissue culture plates. […] The cells were stimulated with R848 for an additional 4 hours at 37° C., 5% CO2. The supernatant (100 μl/well) was harvested to measure TNF-α by ELISA. […] The chemiluminescence values were entered into Athena (Rigel) for curve fitting, EC50 calculation, and database storage.
(§1) TNF-α ELISA was performed according to the vendor protocol, using 96 Well Flat-Bottom, MaxiSorp Black Immuno plates and 100 μL/well of supernatant. The plates were developed using 100 μL/well of Super Signal ELISA Pico Chemiluminescent Substrate. The plates were read with a luminometer, and the chemiluminescence values were entered into Athena (Rigel) for curve fitting, EC50 calculation, and database storage.

In a further assay the target is IRAK4 (Homo sapiens (Human), UniProt Q9NWZ3). Put plainly: IRAK4 ADP-Glo Assay. It is filed as biochemical. Particulars: MBP substrate. Here is the method:
The ADP-Glo™ reagents were thawed at ambient temperature. The Kinase Detection Reagent was prepared by mixing kinase detection buffer with the lyophilized kinase detection substrate, and set aside.
A stock volume of 5× Reaction Kinase Buffer was made with a final concentration of 100 mM MgCl2, 200 mM Tris-HCl, and 0.5 mg/ml of BSA, in distilled H2O with a final pH7.4. A 2× working stock volume of Reaction Kinase Buffer was made containing a final concentration of 100 μM DTT.
The components of IRAK4 Enzyme were thawed on ice. Diluted IRAK4 in 1× Kinase Reaction Buffer (diluted from 2× buffer) was prepared at 5.0 ng/μl.
Then diluted 1:5 in 2× Reaction Buffer in a 96 well plate. 1.0 μl was transferred to a 384 well plate in duplicate. […] 1 μl of 1 mg/ml stock solution of MBP substrate was added NOTE: MBP can be combined with ATP mix with equal volume and then added at 2 μl/well. Final reaction volume was 5 μl.
The plate was centrifuged and the reaction mixture was incubated at room temperature for 60 minutes or at 30° C. for 30 minutes.
The reaction was terminated and the remaining ATP was depleted by adding 5 μl of ADP-Glo™ Reagent. The 384-well plate was centrifuged and then the reaction mixture was incubated for another 40 minutes at ambient temperature.
10 μl of the Kinase Detection Reagent was added. The plate was centrifuged and then the reaction mixture was incubated for another 30 minutes at ambient temperature.
The 384-well reaction plate was read using the WALLAC plate reader (Luminescence 0.1s).
A general note: ADP-Glo first removes unused ATP, then detects ADP through luciferase.

The next assay deals with IL23p19 in THP-1 Cells. Kind of assay: LPS Induced IL23p19 in THP-1 Cells (with IFNγ Primed) Assay. It is filed as cell-based. The settings on record: Homo sapiens, THP-1, 18 h, read-out: IL23 (THP, LPS) (IC50, μM). The method, then:
LPS Induced IL23p19 in THP-1 Cells (with IFNγ Primed) Assay
On day 1, 50K/well THP-1 cells were seeded and primed with IFNγ (50 ng/mL) in 384-well plates for about 18 hours in RPMI media with 10% FBS. […] 50 μL/well 2× compound was added to 50 μL/well THP-1 cells (with IFNγ primed) in duplicate in 384 well tissue culture plates. […] Day 3, after stimulation for 18 hours at 37° C., 5% CO2, the assay plate was centrifuged and 70 μL/well supernatant was harvested. IL-23p19 protein in 70 µL/well of supernatant was measured by sandwich ELISA, and 25 μl/well Cell Titer Glo reagent was added to the remaining cells to measure compound toxicity.
Maxisorp immuno ELISA plates were pre-coated with 25 μL/well of anti-IL-23p19 capture antibody (2.5 ug/mL) in PBS overnight at room temperature. […] 25 μL/well of biotin labeled anti-IL-12(p40/p70) detection antibody (100 ng/mL) in PBS with 1% BSA was added and the plates were incubated at room temperature for 2 hours with shaking. […] The plates were read with a luminometer, and the chemiluminescence values were entered into Athena (Rigel) for curve fitting, EC50 calculation, and database storage.

Assay [1] deals with TNF-α in Human Primary Monocyte-Derived Dendritic Cells. Kind of assay: Gardiquimod-Induced TNF-α in Human Primary Monocyte-Derived Dendritic Cells. The settings on record: Dendritic cell, IFNγ-primed monocyte-derived dendritic cells, 4 μg/ml Gardiquimod, 6 hours, TNF-α ELISA, read-out: TNFα (DC, GARD) (IC50). It is filed as cell-based. Here is the method: Gardiquimod-Induced TNF-α in Human Primary Monocyte-Derived Dendritic Cells
After 2 hours, the media including floating cells was carefully removed and 12 ml of fresh RPMI media (10% FBS) containing GM-CSF (100 ng/ml) and IL-4 (20 ng/ml) were added to the adherent monocytes. The monocytes were allowed to differentiate for 7 days at 37° C., 5% CO2 for 7 days, supplementing with fresh GM-CSF and IL-4 after 3 days. The differentiated dendritic cells (DC) were harvested by centrifugation (1200 rpm/5 min). The DCs were primed at 37° C., 5% CO2 for 24 hours with 50 ng/ml IFN-γ (1000 U/ml) at 50K/well in 100 μl/well of fresh RPMI media (10% FBS) in a white clear bottom 96 well plate.
The primed DCs were pre-incubated with test compound for 1 hour at 37° C., 5% CO2 by adding 100 μl of RPMI media containing 2× concentrated test compound per well (0.5% final DMSO concentration).
DCs were stimulated with Gardiquimod (10 μl per well of 20× concentrated Gardiquimod solution in RPMI media to give a final concentration of 4 μg/ml) at 37° C., 5% CO2 for an additional 6 hours. The supernatant (100 μl/well) was harvested to measure TNF-α by ELISA. […] The chemiluminescence values were entered into Athena (Rigel) for curve fitting, EC50 calculation, and database storage.
as §1
In general terms: An ELISA detects its analyte on a solid surface through an enzyme-linked reagent.

Sequence of IRAK4 (Q9NWZ3 whole entry): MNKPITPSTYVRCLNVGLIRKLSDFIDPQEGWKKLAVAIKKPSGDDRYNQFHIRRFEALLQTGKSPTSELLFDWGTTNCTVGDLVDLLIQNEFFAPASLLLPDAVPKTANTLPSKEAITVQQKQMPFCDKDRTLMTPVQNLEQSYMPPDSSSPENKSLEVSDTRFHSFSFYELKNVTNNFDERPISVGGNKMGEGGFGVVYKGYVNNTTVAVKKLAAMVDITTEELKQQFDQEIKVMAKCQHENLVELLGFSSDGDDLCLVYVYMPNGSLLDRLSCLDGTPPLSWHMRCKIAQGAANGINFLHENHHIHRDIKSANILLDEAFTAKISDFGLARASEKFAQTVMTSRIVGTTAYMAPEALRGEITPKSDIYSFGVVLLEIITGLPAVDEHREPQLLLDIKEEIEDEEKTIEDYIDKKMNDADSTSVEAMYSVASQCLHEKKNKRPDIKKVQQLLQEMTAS

With `CCO[C@H]1CC[C@H](C#Cc2cnc(OC[C@@H]3CCC(=O)N3)c3cc(OC(C)C)c(C(N)=O)cc23)CC1` [Compound I-20, 4-(((1r,4S)-4-ethoxycyclohexyl)ethynyl)-7-isopropoxy-1-(((S)-5-oxopyrrolidin-2-yl)methoxy)isoquinoline-6-carboxamide], the IC50 – broadly, the concentration at which inhibition is half-maximal – in the assay with TNF-α in human PBMCs amounted to 0.0688 µM; against IRAK4, 7 nM; in the assay on IL23p19 in THP-1 Cells, 0.11 µM; in assay [1], 63.4 nM.

For `CCO[C@H]1CC[C@@H](C#Cc2cnc(OC[C@@H]3CCC(=O)N3)c3cc(OC(C)C)c(C(N)=O)cc23)CC1` [Compound I-21, 4-((cis-4-ethoxycyclohexyl)ethynyl)-7-isopropoxy-1-(((S)-5-oxopyrrolidin-2-yl)methoxy)isoquinoline-6-carboxamide], the IC50 in the assay with TNF-α in human PBMCs amounted to 0.104 µM; on IRAK4, 5.6 nM; in the assay on IL23p19 in THP-1 Cells it was 0.194 µM; in assay [1] it was 101 nM.

Regarding `CC(C)Oc1cc2c(OC[C@@H]3CCC(=O)N3)ncc(C#C[C@H]3CC[C@](C)(O)CC3)c2cc1C(N)=O` [Compound I-22, 4-(((1r,4S)-4-hydroxy-4-methylcyclohexyl)ethynyl)-7-isopropoxy-1-(((S)-5-oxopyrrolidin-2-yl)methoxy)isoquinoline-6-carboxamide], the IC50 in the assay with TNF-α in human PBMCs was 0.049 µM; against IRAK4, 12.3 nM; with IL23p19 in THP-1 Cells, 0.208 µM; in assay [1], 72.9 nM.

With `CC(C)Oc1cc2c(OC[C@@H]3CCC(=O)N3)ncc(C#C[C@H]3CC[C@@](C)(O)CC3)c2cc1C(N)=O` [Compound I-23, 4-(((1s,4R)-4-hydroxy-4-methylcyclohexyl)ethynyl)-7-isopropoxy-1-(((S)-5-oxopyrrolidin-2-yl)methoxy)isoquinoline-6-carboxamide], the IC50 in the assay with TNF-α in human PBMCs was determined as 2.12 µM; at IRAK4 it was 11.4 nM; in the assay on IL23p19 in THP-1 Cells, 0.712 µM; in assay [1], 566 nM.

Regarding `CC(C)Oc1cc2c(OC[C@@H]3CCC(=O)N3)ncc(C#CC3CN(C(=O)OC(C)(C)C)C3)c2cc1C(N)=O` [Compound I-24, tert-butyl (S)-3-((6-carbamoyl-7-isopropoxy-1-((5-oxopyrrolidin-2-yl)methoxy)isoquinolin-4-yl)ethynyl)azetidine-1-carboxylate], the IC50 with TNF-α in human PBMCs is 0.0763 µM; at IRAK4 it was 8.1 nM; in the assay on IL23p19 in THP-1 Cells, 0.125 µM; in assay [1], 22.4 nM.

`CC(C)Oc1cc2c(OC[C@@H]3CCC(=O)N3)ncc(C#CC3CNC3)c2cc1C(N)=O` [Compound I-25, (S)-4-(azetidin-3-ylethynyl)-7-isopropoxy-1-((5-oxopyrrolidin-2-yl)methoxy)isoquinoline-6-carboxamide]: the IC50 with TNF-α in human PBMCs amounted to 2.36 µM; against IRAK4 it was 3.3 nM; in the assay with IL23p19 in THP-1 Cells it was 12.7 µM; in assay [1], 1350 nM.

For the compound `CC(C)Oc1cc2c(OC[C@@H]3CCC(=O)N3)ncc(C#CC3CN(C)C3)c2cc1C(N)=O` [Compound I-26, (S)-7-isopropoxy-4-((1-methylazetidin-3-yl)ethynyl)-1-((5-oxopyrrolidin-2-yl)methoxy)isoquinoline-6-carboxamide], the IC50 was 0.363 µM in the assay with TNF-α in human PBMCs, 2.6 nM against IRAK4, 0.726 µM in the assay with IL23p19 in THP-1 Cells and 161 nM in assay [1].

With `CC(C)Oc1cc2c(OC[C@@H]3CCC(=O)N3)ncc(C#CC3CN(C(C)C)C3)c2cc1C(N)=O` [Compound I-27, (S)-7-isopropoxy-4-((1-isopropylazetidin-3-yl)ethynyl)-1-((5-oxopyrrolidin-2-yl)methoxy)isoquinoline-6-carboxamide], the IC50 turned out to be 0.176 µM with TNF-α in human PBMCs, 5.6 nM against IRAK4, 0.634 µM in the assay on IL23p19 in THP-1 Cells and 514 nM in assay [1].

For `COC(=O)N1CC(C#Cc2cnc(OC[C@@H]3CCC(=O)N3)c3cc(OC(C)C)c(C(N)=O)cc23)C1` [Compound I-28, methyl (S)-3-((6-carbamoyl-7-isopropoxy-1-((5-oxopyrrolidin-2-yl)methoxy)isoquinolin-4-yl)ethynyl)azetidine-1-carboxylate], the IC50 was determined as 0.0331 µM in the assay on TNF-α in human PBMCs, 6.3 nM against IRAK4, 0.14 µM in the assay on IL23p19 in THP-1 Cells and 111 nM in assay [1].

Take `CNC(=O)N1CC(C#Cc2cnc(OC[C@@H]3CCC(=O)N3)c3cc(OC(C)C)c(C(N)=O)cc23)C1` [Compound I-29, (S)-7-isopropoxy-4-((1-(methylcarbamoyl)azetidin-3-yl)ethynyl)-1-((5-oxopyrrolidin-2-yl)methoxy)isoquinoline-6-carboxamide]: the IC50 came to 0.686 µM with TNF-α in human PBMCs, 5.5 nM against IRAK4, 4.25 µM in the assay on IL23p19 in THP-1 Cells and 1750 nM in assay [1].

In the case of `COC1(OC)CC(C#Cc2cnc(OC[C@@H]3CCC(=O)N3)c3cc(OC(C)C)c(C(N)=O)cc23)C1` [Compound I-30, (S)-4-((3,3-dimethoxycyclobutyl)ethynyl)-7-isopropoxy-1-((5-oxopyrrolidin-2-yl)methoxy)isoquinoline-6-carboxamide], the IC50 in the assay on TNF-α in human PBMCs is 0.0947 µM; on IRAK4 it was 6.4 nM; with IL23p19 in THP-1 Cells, 0.142 µM; in assay [1], 71 nM.

As for `CC(C)Oc1cc2c(OC[C@@H]3CCC(=O)N3)ncc(C#C[C@H]3C[C@@H](N(C)C)C3)c2cc1C(N)=O` [Compound I-31, 4-((cis-3-(dimethylamino)cyclobutyl)ethynyl)-7-isopropoxy-1-(((S)-5-oxopyrrolidin-2-yl)methoxy)isoquinoline-6-carboxamide], the concentration for half-maximal inhibition (IC50) in the assay with TNF-α in human PBMCs came out at 0.0637 µM; on IRAK4, 3.5 nM; in the assay on IL23p19 in THP-1 Cells, 0.136 µM; in assay [1], 89.8 nM.

On to `CC(C)Oc1cc2c(OC[C@@H]3CCC(=O)N3)ncc(-c3cnn(C4CC4)c3)c2cc1C(N)=O` [Compound I-32, (S)-4-(1-cyclopropyl-1H-pyrazol-4-yl)-7-isopropoxy-1-((5-oxopyrrolidin-2-yl)methoxy)isoquinoline-6-carboxamide], for which the IC50 with TNF-α in human PBMCs was 0.45 µM; against IRAK4, 8.5 nM; in the assay on IL23p19 in THP-1 Cells it was 2.21 µM; in assay [1] it was 569 nM.
